Literature values, collected in patent US11512314B2, “Amphiphilic polynucleotides” (Duke University, priority 2019, dated 2022).
Where two headings read alike, the source gives them in different places.

Columns and labels:
[1] = target: prostate-specific membrane antigen (PSMA) (Homo sapiens, UniProt Q04609); conditions: binding to PSMA
[2] = free 5FU, reported value
[3] = small molecule drug

Chain of prostate-specific membrane antigen (PSMA) (Q04609 whole entry): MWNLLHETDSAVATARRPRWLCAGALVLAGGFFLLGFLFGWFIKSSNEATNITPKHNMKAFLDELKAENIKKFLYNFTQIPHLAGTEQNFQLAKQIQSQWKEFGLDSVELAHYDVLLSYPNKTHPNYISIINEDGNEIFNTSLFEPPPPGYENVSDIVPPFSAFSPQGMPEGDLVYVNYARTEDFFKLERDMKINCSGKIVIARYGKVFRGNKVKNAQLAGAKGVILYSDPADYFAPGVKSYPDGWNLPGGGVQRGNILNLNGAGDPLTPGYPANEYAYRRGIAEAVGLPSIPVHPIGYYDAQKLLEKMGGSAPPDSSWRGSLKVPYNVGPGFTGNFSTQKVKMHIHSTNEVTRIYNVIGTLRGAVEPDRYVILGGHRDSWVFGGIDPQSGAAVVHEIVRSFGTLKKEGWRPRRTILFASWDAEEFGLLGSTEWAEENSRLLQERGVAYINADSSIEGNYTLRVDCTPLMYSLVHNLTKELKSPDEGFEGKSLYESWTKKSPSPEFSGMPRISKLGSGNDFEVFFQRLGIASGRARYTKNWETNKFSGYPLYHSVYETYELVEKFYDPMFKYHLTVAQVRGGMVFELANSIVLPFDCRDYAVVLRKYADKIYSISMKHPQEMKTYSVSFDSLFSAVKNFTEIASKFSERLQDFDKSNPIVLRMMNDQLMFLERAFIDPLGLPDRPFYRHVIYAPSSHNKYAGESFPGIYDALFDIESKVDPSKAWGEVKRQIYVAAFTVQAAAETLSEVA

Row | Molecule | Kd [1] [nM] | reported MTD [2] [mg/kg] | reported MTD ([2]; listed as 5-FU) [mg/kg] | half-life [3] [min]
1 | 5′-GGGAGGACGAUGCGGAUCAGCCAUGUUUACGUCACUCCU-3′ (listed as RNA, chemistry not given here) [A10] | 2.1 |  |  | 
2 | O=c1[nH]cc(F)c(=O)[nH]1 [5FU] |  | 15 to 20 | 20 | 8 to 14
